Series [1] deals with K562R (chronic myeloid leukemia). Kind of series: Antiproliferative activity (IC50), CellTiter Glo, K562R. The series is classed as cell-based. The conditions noted are these: for IC50: Homo sapiens, K-562R. The text has this:
(§1) The IC50 (as per accepted terminology) activities of the compounds according to the invention 4-((3-amino-4-methoxyphenyl)(methyl)amino) quinoline-2-carbonitrile (ICQN-1); 5-(5-((2-cyanoquinolin-4-yl)(methyl)amino)-2-methoxyphenyl)-N-hydroxypent-4-ynamide (ICQN-2); and (E)-3-(5-((2-cyanoquinolin-4-yl)(methyl)amino)-2-methoxyphenyl)-N-hydroxyacrylamide (ICQN-3) were compared with compounds of the prior art and with a commercial and clinical reference compound, in particular MMAE (monomethylauristatin E). The IC50 activities were measured on various different cancer cell lines HCT116 (colorectal tumour), A549 (non-small cell lung cancer), NCI-N87 (gastric tumour), Mia-Paca-2 (pancreatic tumour), K562R (chronic myeloid leukemia), SKOV3 (ovarian tumour), SKBr3 (breast tumour, Her2 overexpression), MCF7 (breast tumour) and MDA-MB231 (breast tumour).
(§2) The cancer cell lines were obtained from the American Culture Collection (ATCC, Rockville, MD) or from the German collection of microorganisms and cell cultures of the Leibniz Institute (DSMZ, Braunschweig-Germany) or from the European collection of cell cultures (ECACC, England). The cancer cell lines were cultured according to the supplier's instructions.
(§3) The A549 lung carcinoma cells, K562R myeloid leukemia cells, and the NCI-N87 gastric carcinoma cells were cultured in Gibco Roswell Park Memorial Institute (RPMI) 1640 medium supplemented with 10% foetal calf serum (FCS) and 1% glutamine. The Mia-Paca2 carcinoma cells were cultured in Gibco Dulbecco's Modified Eagle Medium (DMEM) supplemented with 10% foetal calf serum (FCS) and 1% glutamine.
(§4) The cells were counted using a Vi-cell XR (Beckman Coulter) and the cell viability was assessed by using 0.25% trypan blue dye exclusion assay. The cells were tested for the presence of mycoplasmas prior to the experiments with the Mycoplasma PCR detection kit (Applied Biological Materials Inc., Canada) according to the manufacturer's instructions, and only mycoplasma-free cells were used for the study. The cell lines were maintained at 37° C. in a humidified atmosphere containing 5% CO2.
(§5) After 24 hours of culturing, the cells were treated with the tested compounds at 10 different final concentrations. Each concentration was obtained from serial dilutions in culture medium starting from the stock solution. The control cells were treated with the carrier. The experiments were carried out in triplicate.
(§6) The measurements were performed after 72 hours of treatment using the CellTiter Glo assay (Promega) which makes it possible to measure through bioluminescence (quantification of adenosine triphosphate—ATP) the number of living cells, by using a PolarStar Omega microplate reader (BMG-Labtech).
(§7) The dose-response curves were plotted with the Graph Prism software application and the IC50 values were calculated using the Graph Prism software based on polynomial curves (four or five parameter logistic equations).
The K562R (chronic myeloid leukemia) cells have an MDR profile that allows them to be resistant to several chemotherapeutic compounds including the reference compound MMAE.

Series [2] relates to Mia-Paca-2 (pancreatic tumour). Kind of series: Antiproliferative activity (IC50), CellTiter Glo, Mia-Paca-2. The series is classed as cell-based. The conditions noted are these: Homo sapiens, MIA PaCa-2.
Source text: as §1, §2, §3, §4, §5, §6, §7

The test system of the next series is NCI-N87 (gastric tumour). Kind of series: Antiproliferative activity (IC50), CellTiter Glo, NCI-N87. The series is classed as cell-based. As to conditions: Homo sapiens, NCI-N87.
Source text: as §1, §2, §3, §4, §5, §6, §7
On the technique in general: ATP-based viability assays read luminescence as a measure of living cells.

Another series relates to SKOV3 (ovarian tumour). The experiment in a line: Antiproliferative activity (IC50), CellTiter Glo, SKOV3. The series is classed as cell-based, human. As to conditions: Homo sapiens, SK-OV-3.
Source text: as §1, §2
(§8) The HCT-116 human colorectal carcinoma, SK-BR3 breast carcinoma, and SK-OV-3 ovarian carcinoma cells were cultured in Gibco McCoy's 5A medium supplemented with 10% foetal calf serum (FCS) and 1% glutamine.
as §4, §5, §6, §7

For series [3], the system named is SKBr3 (breast tumour, Her2 overexpression). Kind of series: Antiproliferative activity (IC50), CellTiter Glo, SKBr3. The series is classed as cell-based, human. As to conditions: Homo sapiens, SK-BR-3.
Source text: as §1, §2, §8, §4, §5, §6, §7

The test system of series [4] is A549 (non-small cell lung cancer). The experiment in a line: Antiproliferative activity (IC50), CellTiter Glo, A549. The series is classed as cell-based. The conditions noted are these: Homo sapiens, A549; comparative data 13b / ICQN-1; unit inferred; read-out: A549 (antiproliferative activity, Table 3).
Source text: as §1, §2, §3, §4, §5, §6, §7

The subject of series [5] is HCT116 (colorectal tumour). The experiment in a line: Antiproliferative activity (IC50), CellTiter Glo, HCT116. The series is classed as cell-based, human. As to conditions: Homo sapiens, HCT-116; comparative data 13b / ICQN-1; unit inferred; read-out: HCT116 (antiproliferative activity, Table 3).
Source text: as §1, §2, §8, §4, §5, §6, §7

A further series relates to MDA-MB-231 cell line. The conditions noted are these: published by Chen et al.; read-out: IC50 over the MDA-MB-231 cell line; cited from earlier work.
Another series concerns HCT116 cell line. The conditions noted are these: comparison of molecules Ia and Ib; cited from earlier work.

The structures appear in SMILES notation. Like-named read-outs stand apart in the source and are kept apart here.

`C=C(c1ccc(OC)c(N)c1)c1cc(C)nc2ccccc12` [ICQO-1, reference compound]: the IC50 in [1] (resistant cancer cells, MDR profile, read-out: K562R (PgP+) IC50) is 1.98 nM. Besides, the “Ratio vs MMAE, K562R (PgP+)” value in [1] (resistant cancer cells, MDR profile) worked out at 17.
Consider `CCOc1ccc(N(C)c2cc(C#N)nc3ccccc23)cc1N` [ICQN-2, 4-((3-amino-4-ethoxyphenyl)(methyl)amino)quinoline-2-carbonitrile], for which the IC50 in [2] (free, unconjugated, 72 hours of treatment, read-out: Mia-Paca-2 IC50) was 0.29 nM; in series [2] (nM given only in VB118 cells, read-out: Mia-Paca-2 (antiproliferative activity, Table 6)) it was 0.29 nM; in the series with NCI-N87 (gastric tumour) (free, unconjugated, 72 hours of treatment, read-out: NIC-N87 IC50), 0.93 nM; with NCI-N87 (gastric tumour) (nM given only in VB118 cells, read-out: NCI-N87 (antiproliferative activity, Table 6)), 0.93 nM; in series [1] (free, unconjugated, 72 hours of treatment, read-out: K562R IC50), 0.36 nM; in series [1] (nM given only in VB118 cells, read-out: K562R (antiproliferative activity, Table 6)), 0.36 nM. The IC50 turned out to be 0.59 nM in the series with SKOV3 (ovarian tumour) (free, unconjugated, 72 hours of treatment, read-out: SKOV3 IC50); 0.59 nM with SKOV3 (ovarian tumour) (nM given only in VB118 cells, read-out: SKOV-3 (antiproliferative activity, Table 6)); 0.38 nM in [3] (free, unconjugated, 72 hours of treatment, read-out: SKBr3 IC50); 0.38 nM in series [3] (nM given only in VB118 cells, read-out: SKBR3 (antiproliferative activity, Table 6)).
`COc1ccc(N(C)c2cc(C)nc3ccccc23)cc1N` [Compound 13b, reference compound]: the IC50 stood at 0.92 nM in series [2] (comparative data 13b / ICQN-1, unit inferred, read-out: Mia-Paca2 (antiproliferative activity, Table 3)); 4.36 nM in the series with NCI-N87 (gastric tumour) (comparative data 13b / ICQN-1, unit inferred, read-out: NCI-N87 (antiproliferative activity, Table 3)); 3.59 nM in series [1] (comparative data 13b / ICQN-1, unit inferred, read-out: K562R (antiproliferative activity, Table 3)); 1.28 nM with SKOV3 (ovarian tumour) (comparative data 13b / ICQN-1, unit inferred, read-out: SKOV3 (antiproliferative activity, Table 3)); 0.68 nM in series [4]; 2.15 nM in [5]. Further, the IC50 in [3] (comparative data 13b / ICQN-1, unit inferred, read-out: SKBr3 (antiproliferative activity, Table 3)) is 2.17 nM; in the series with MDA-MB-231 cell line, 3.2 nM.
With `CN(c1ccc2c(c1)c1ccccc1n2C)c1cc(C#N)nc2ccccc12` [Ib], the “drop in cytotoxic activity (factor) on replacing Me by CN at position 2 of quinoline” value in the series with HCT116 cell line is recorded as 170.

Values taken from patent US12172965B2, “Drug conjugate comprising quinoline derivatives” (UNIVERSITE PARIS-SACLAY, priority 2018, dated 2024).
